Experimental data reported in the supplement of paper PMC7840683.

Tested on: HepaRG
Experiment: LDH release cytotoxicity, % of total lysis control; higher = more cytotoxic
Conditions: 48 h
Summary of the method: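 Eight-point half-log series of test chemicals, the highest at 100 µM, were given in duplicate for 48 h to single-lot HepaRG cells on collagen I-coated 96-well plates in serum-free induction medium with 0.5% DMSO. A Tecan Safire read resorufin fluorescence from CytoTox-ONE as a measure of LDH in 50 µL spent medium, with 0.1% Triton X in total lysis wells. Percent cytotoxicity was normalized to on-plate vehicle and total lysis controls and averaged over the duplicates.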

Cc1cc(F)ccc1-c1cc(N2CCC(O)C2CO)ncc1N(C)C(=O)C(C)(C)c1cc(C(F)(F)F)cc(C(F)(F)F)c1 (stereo unspecified)
Conditions | LDH release cytotoxicity [%]
0.02577 µM | -0.371
0.0815 µM | -1.04
0.2577256 µM | -1.11
0.815 µM | -0.898
2.57726 µM | -1.2
8.15 µM | -1.08
25.7726 µM | 12.91
81.5 µM | 86.4

CN(C)C(=O)C1(N2CCCCC2)CCN(CCC2(c3ccc(Cl)c(Cl)c3)CN(C(=O)c3ccccc3)CCO2)CC1 (stereo unspecified)
Conditions | LDH release cytotoxicity [%]
0.02988 µM | -0.742
0.0945 µM | -0.252
0.298835 µM | -0.7
0.945 µM | -0.736
2.98835 µM | -0.21
9.45 µM | 0.674
29.8835 µM | 69.1
94.5 µM | 85.4

CN(C)C(=O)NC1(c2ccccc2)CCN(CCC2(c3ccc(F)c(F)c3)CN(C(=O)c3ccccc3)CCO2)CC1 (stereo unspecified)
Conditions | LDH release cytotoxicity [%]
0.0297254 µM | -1.81
0.094 µM | -1.79
0.297254 µM | -2.55
0.94 µM | -1.66
2.97254 µM | -1.69
9.4 µM | -1.59
29.72541 µM | 0.14
94 µM | 13.5

CN(C)C(=O)NC1(c2ccccc2)CCN(CCCC2(c3ccc(Cl)c(Cl)c3)CCCN(C(=O)c3ccccc3)C2)CC1 (stereo unspecified)
Conditions | LDH release cytotoxicity [%]
0.0079057 µM | 0.117
0.025 µM | -1.98
0.0790569 µM | -1.74
0.25 µM | -1.65
0.790569 µM | -1.74
2.5 µM | -1.23
7.90569 µM | -0.502
25 µM | 77

CN(CC(CC[N+]12CCC(C3CCCCC3)(CC1)CC2)c1ccc(Cl)c(Cl)c1)C(=O)c1cc(C(F)(F)F)cc(C(F)(F)F)c1 (stereo unspecified)
Conditions | LDH release cytotoxicity [%]
0.03162 µM | -0.117
0.1 µM | -0.956
0.3162278 µM | -1.24
1 µM | -1.39
3.16228 µM | -1.45
10 µM | 1.28
31.6228 µM | 57.3
100 µM | 84.4

Cn1c(=O)cc(Oc2ccc(F)cc2F)c2cnc(NCC(C)(C)O)nc21
Conditions | LDH release cytotoxicity [%]
0.03162 µM | -1.61
0.1 µM | -1.64
0.3162278 µM | -0.855
1 µM | -0.86
3.16228 µM | -1.12
10 µM | -1.19
31.6228 µM | -0.929
100 µM | -1.1

CN1C(=O)N(c2ccccc2Br)Cc2cnc(Nc3ccc4c(c3)OCC(CO)O4)nc21 (stereo unspecified)
Conditions | LDH release cytotoxicity [%]
0.03162 µM | 0.454
0.1 µM | -0.735
0.3162278 µM | -1.07
1 µM | -1.37
3.16228 µM | -0.0336
10 µM | 0.443
31.6228 µM | 8.29
100 µM | 63.4

CNCc1ccc(NC(=O)c2c[nH]c3c2C(=O)CCC3)cc1
Conditions | LDH release cytotoxicity [%]
0.03162 µM | -1.87
0.1 µM | -0.925
0.3162278 µM | -1.24
1 µM | -1.23
3.16228 µM | -1.06
10 µM | -0.719
31.6228 µM | -0.723
100 µM | -1.06

CNS(=O)(=O)c1cc(C(=O)N2CCC(CCN3C4CCC3CC(n3c(C)nc5ccccc53)C4)(c3cccc(F)c3)CC2)c(Cl)cc1F (stereo unspecified)
Conditions | LDH release cytotoxicity [%]
0.03162 µM | -1.92
0.1 µM | -0.773
0.3162278 µM | -1.36
1 µM | -1.37
3.16228 µM | -1.08
10 µM | -0.27
31.6228 µM | 10.5
100 µM | 23.1

COc1cc(C(=O)NC2CCN(C)CC2)ccc1Nc1ncc2c(n1)N(C1CCCC1)CC(F)(F)C(=O)N2C
Conditions | LDH release cytotoxicity [%]
0.02941 µM | -0.558
0.093 µM | 1.88
0.294092 µM | 6.47
0.93 µM | 10.3
2.9409182 µM | 9.21
9.3 µM | 12.6
29.4092 µM | 88.1
93 µM | 90.9

COc1cc(-c2nc(NC(=O)c3cc4cc(C)cc(C)c4n3CC(=O)O)sc2CCC2CCCCC2)c(OC)cc1Cl
Conditions | LDH release cytotoxicity [%]
0.0267212 µM | 0.271
0.0845 µM | -0.13
0.267213 µM | -0.107
0.845 µM | 0.419
2.67212 µM | -0.184
8.45 µM | 37.3
26.7212 µM | 67.7
84.5 µM | 78.3

COc1cc(C(C)C)c2c(c1)S(=O)(=O)N(COc1cc(=O)n3cccc(OCCN4CCCCC4)c3n1)C2=O
Conditions | LDH release cytotoxicity [%]
0.0079057 µM | 0.0307
0.025 µM | 0.0794
0.0790569 µM | 0.357
0.25 µM | -0.592
0.790569 µM | -0.444
2.5 µM | -0.335
7.90569 µM | -0.231
25 µM | 14.2

COc1ccc(C(=O)Nc2nc3ccccc3c(NCc3ccccc3)c2C#N)cc1
Conditions | LDH release cytotoxicity [%]
0.03162 µM | -1.06
0.1 µM | -0.452
0.3162278 µM | -0.037
1 µM | 0.715
3.16228 µM | 2.34
10 µM | 2.97
31.6228 µM | 4.87
100 µM | 8.05

COc1ccc(C=CS(=O)(=O)NC(=O)c2ccc(C)cc2Cl)cc1
Conditions | LDH release cytotoxicity [%]
0.03162 µM | -1.21
0.1 µM | -1.99
0.3162278 µM | -1.66
1 µM | -1.597
3.16228 µM | -1.41
10 µM | -1.42
31.6228 µM | -0.383
100 µM | 1.21

COc1cccc(-c2ccc(C=CCN3CCCCCC3)cc2Cl)c1
Conditions | LDH release cytotoxicity [%]
0.0286186 µM | -0.404
0.0905 µM | -2.18
0.2861861 µM | -2.02
0.905 µM | -1.85
2.86186 µM | -1.3
9.05 µM | -0.654
28.618613 µM | 0.285
90.5 µM | 71.6

COCc1nnc(-c2ccc[n+]([O-])c2)n1-c1c(Cl)c(Cl)cc2[nH]c(=O)c(=O)[nH]c12
Conditions | LDH release cytotoxicity [%]
0.03162 µM | -1.68
0.1 µM | -1.55
0.3162278 µM | -2.04
1 µM | -2.82
3.16228 µM | -2.03
10 µM | -1.6
31.6228 µM | -1.69
100 µM | -0.641

COc1ccc2cc(S(=O)(=O)NC(CC(=O)NC(Cc3ccc(CN4C(C)CCCC4C)cc3)C(=O)N(C)C(C)C)c3ccc4c(c3)OCO4)ccc2c1 (stereo unspecified)
Conditions | LDH release cytotoxicity [%]
0.0301998 µM | -0.793
0.0955 µM | -1.98
0.301997 µM | -1.26
0.955 µM | -1.65
3.01998 µM | -1.13
9.55 µM | 1.45
30.199752 µM | 70.28
95.5 µM | 80.2
